Measured values: patent US9289409B2, “Sulindac formulations in a biodegradable material” (Warsaw Orthopedic, Inc., priority 2008, dated 2016)

Columns and labels:
[1] = test system: Rat Chronic Constriction Injury Model; assay: Hargreaves test, thermal hyperalgesia, rat chronic constriction injury (Bennett) model; format: in vivo, Wistar rat; conditions: sulindac intraperitoneally 0.4 mg/kg/day; days 7-56; FIG. 3
From the text: (§1) The inventors evaluated the efficacy of a 5 Month Sulindac/Polymer Drug Depot in the Rat Chronic Constriction Injury Model. The animal model was the Bennett Model (Wistar rat). The purpose: To determine whether a 5 month polymer sulindac-eluting depot can improve pain associated behavioral responses in a rat model of neuropathic pain.
(§2) Experimental Design: Four loose chromic gut ligatures, 1 mm apart, were tied around the common sciatic nerve at mid-thigh. Each animal received treatment of test or control article-according to the dosing described in Table 4.
(§3) To date, the inventors have conducted the present study for a period of 57 days and have employed the following two tests: (1) the Hargreaves test on days 7, 14, 21, 28, 35, 42, 49, and 56; and (2) the von Frey test on days 8, 15, 22, 29, 36, 43, 50, and 57. The results of theses tests are summarized in FIGS. 3-6 and show the efficacy of sulindac of the recited time periods.

[2] = test system: Rat Chronic Constriction Injury Model; assay: von Frey test, mechanical allodynia, rat chronic constriction injury (Bennett) model; format: in vivo, Wistar rat; conditions: sulindac intraperitoneally 0.4 mg/kg/day; days 8-57; FIG. 4
From the text: as §1, §2, §3

CC1=C(CC(=O)O)c2cc(F)ccc2/C1=C\c1ccc([S+](C)[O-])cc1 (centres unmarked) [sulindac]
pain behavioral response (percentage of baseline), thermal hyperalgesia, compared to unloaded polymer depot [1]: consistently reduced the behavioral response | pain behavioral response (percentage of baseline), mechanical allodynia, compared to unloaded polymer depots [2]: reduced the behavioral response
